Consider 21 substances from the OligoGym collection.

The target of the data set is HBV. The note with it: ASO.

Where “and” joins values, the source holds several entries; their conditions need not be identical. Equal entries are not always repeated. HELM strings list units from the 5' end as sugar, base in round brackets, then linkage (d deoxyribose, r ribose, m 2'-O-methyl, p phosphodiester). Methylation of C is not given here. [moe] = 2'-O-(2-methoxyethyl) (MOE); [cEt] = constrained ethyl (cEt); [sp] = phosphorothioate linkage

On to “RNA1{[moe](C)[sp].[moe](A)[sp].d(C)[sp].d(T)[sp].d(A)[sp].d(G)[sp].d(T)[sp].d(A)[sp].d(A)[sp].d(A)[sp].d(C)[sp].[moe](T)[sp].[moe](G)[sp].[moe](A)[sp].[moe](G)[sp].[moe](C)}$$$$V2.0”, for which the target mRNA inhibition (HepG2, 0.07 µM) was 52% and 53%.

With “RNA1{[moe](C)[sp].[cEt](T)[sp].[cEt](G)[sp].d(G)[sp].d(A)[sp].d(G)[sp].d(C)[sp].d(C)[sp].d(A)[sp].d(C)[sp].d(C)[sp].d(A)[sp].d(G)[sp].[cEt](C)[sp].[cEt](A)[sp].[moe](G)}$$$$V2.0”, the target mRNA inhibition (HepG2, 0.07 µM) was 60% and 45%.

As to “RNA1{[moe](T)[sp].[moe](C)[sp].d(C)[sp].d(G)[sp].d(C)[sp].d(A)[sp].d(G)[sp].d(T)[sp].d(A)[sp].d(T)[sp].d(G)[sp].[moe](G)[sp].[moe](A)[sp].[moe](T)[sp].[moe](C)[sp].[moe](G)[sp].[moe](G)}$$$$V2.0”, the target mRNA inhibition (HepG2, 0.07 µM) was 74% and 70%.

Take “RNA1{[moe](C)[sp].[moe](C)[sp].[moe](A)[sp].[moe](C)[sp].[moe](T)[sp].d(G)[sp].d(A)[sp].d(A)[sp].d(C)[sp].d(A)[sp].d(A)[sp].d(A)[sp].d(T)[sp].d(G)[sp].[moe](G)[sp].[moe](C)}$$$$V2.0”: the target mRNA inhibition (HepG2, 0.07 µM) was 55% and 44%.

Turning to “RNA1{[moe](A)[sp].[moe](G)[sp].[moe](G)[sp].d(T)[sp].d(G)[sp].d(A)[sp].d(A)[sp].d(G)[sp].d(C)[sp].d(G)[sp].d(A)[sp].d(A)[sp].[moe](G)[sp].[moe](T)[sp].[moe](G)[sp].[moe](C)}$$$$V2.0”, the target mRNA inhibition (HepG2, 0.07 µM) was 68% and 58%.

Turning to “RNA1{[moe](A)[sp].[moe](C)[sp].[moe](G)[sp].[moe](T)[sp].[moe](G)[sp].d(C)[sp].d(A)[sp].d(G)[sp].d(A)[sp].d(G)[sp].d(G)[sp].d(T)[sp].d(G)[sp].d(A)[sp].[moe](A)[sp].[moe](G)[sp].[moe](C)}$$$$V2.0”, the target mRNA inhibition (HepG2, 0.07 µM) was 73% and 52%.

Turning to “RNA1{[moe](G)[sp].[moe](A)[sp].[moe](A)[sp].[moe](G)[sp].d(C)[sp].d(G)[sp].d(A)[sp].d(A)[sp].d(G)[sp].d(T)[sp].d(G)[sp].d(C)[sp].d(A)[sp].[moe](C)[sp].[moe](A)[sp].[moe](C)}$$$$V2.0”, the target mRNA inhibition (HepG2, 0.07 µM) was 48% and 59%.

As to “RNA1{[moe](A)[sp].[moe](T)[sp].[moe](T)[sp].d(T)[sp].d(A)[sp].d(T)[sp].d(G)[sp].d(C)[sp].d(C)[sp].d(T)[sp].d(A)[sp].d(C)[sp].[moe](A)[sp].[moe](G)[sp].[moe](C)[sp].[moe](C)}$$$$V2.0”, where the note is “HepG2, 0.07 µM”, the target mRNA inhibition is 38% and 47%.

With “RNA1{[moe](C)[sp].[cEt](A)[sp].[cEt](C)[sp].d(T)[sp].d(G)[sp].d(A)[sp].d(A)[sp].d(C)[sp].d(A)[sp].d(A)[sp].d(A)[sp].d(T)[sp].d(G)[sp].[cEt](G)[sp].[cEt](C)[sp].[moe](A)}$$$$V2.0”, the target mRNA inhibition (HepG2, 0.07 µM) was 65% and 75%.

On to “RNA1{[moe](T)[sp].[cEt](T)[sp].d(A)[sp].d(T)[sp].d(G)[sp].d(C)[sp].d(C)[sp].d(T)[sp].d(A)[sp].d(C)[sp].d(A)[sp].d(G)[sp].[cEt](C)[sp].[moe](C)[sp].[cEt](T)[sp].[moe](C)}$$$$V2.0”, for which the target mRNA inhibition (HepG2, 0.07 µM) was 50% and 56%.

With “RNA1{[moe](G)[sp].[moe](T)[sp].[moe](T)[sp].[moe](C)[sp].d(C)[sp].d(G)[sp].d(C)[sp].d(A)[sp].d(G)[sp].d(T)[sp].d(A)[sp].d(T)[sp].d(G)[sp].[moe](G)[sp].[moe](A)[sp].[moe](T)[sp].[moe](C)}$$$$V2.0”, the target mRNA inhibition (HepG2, 0.07 µM) was 52% and 43%.

On to “RNA1{[moe](G)[sp].[cEt](A)[sp].[cEt](G)[sp].d(G)[sp].d(C)[sp].d(C)[sp].d(C)[sp].d(A)[sp].d(C)[sp].d(T)[sp].d(C)[sp].d(C)[sp].d(C)[sp].[cEt](A)[sp].[cEt](T)[sp].[moe](A)}$$$$V2.0”, for which the target mRNA inhibition stood at 29% (HepG2, 0.0092593 µM); 63% (HepG2, 0.0277778 µM); 87% (HepG2, 0.0833333 µM); 85% (HepG2, 0.25 µM).

In the case of “RNA1{[moe](C)[sp].[moe](C)[sp].[moe](G)[sp].d(C)[sp].d(A)[sp].d(G)[sp].d(T)[sp].d(A)[sp].d(T)[sp].d(G)[sp].d(G)[sp].d(A)[sp].[moe](T)[sp].[moe](C)[sp].[moe](G)[sp].[moe](G)}$$$$V2.0”, the target mRNA inhibition reads like this: (HepG2, 0.0092593 µM) 0%; (HepG2, 0.0277778 µM) 23%; (HepG2, 0.07 µM) 75% and 76%; (HepG2, 0.0833333 µM) 56%; (HepG2, 0.25 µM) 79%.

As for “RNA1{[moe](A)[sp].[cEt](T)[sp].d(G)[sp].d(A)[sp].d(G)[sp].d(G)[sp].d(C)[sp].d(A)[sp].d(T)[sp].d(A)[sp].d(G)[sp].d(C)[sp].[cEt](A)[sp].[moe](G)[sp].[cEt](C)[sp].[moe](A)}$$$$V2.0”, under “HepG2, 0.07 µM”, the target mRNA inhibition is 63% and 57%.

Regarding “RNA1{[moe](A)[sp].[moe](A)[sp].[moe](C)[sp].[moe](C)[sp].[moe](A)[sp].d(C)[sp].d(T)[sp].d(G)[sp].d(A)[sp].d(A)[sp].d(C)[sp].d(A)[sp].d(A)[sp].d(A)[sp].[moe](T)[sp].[moe](G)}$$$$V2.0”, the target mRNA inhibition (HepG2, 0.07 µM) was 24% and 20%.

For “RNA1{[moe](A)[sp].[moe](G)[sp].[moe](G)[sp].[moe](C)[sp].[moe](A)[sp].d(T)[sp].d(A)[sp].d(G)[sp].d(C)[sp].d(A)[sp].d(G)[sp].d(C)[sp].d(A)[sp].d(G)[sp].[moe](G)[sp].[moe](A)[sp].[moe](T)}$$$$V2.0”, the target mRNA inhibition (HepG2, 0.07 µM) was 61% and 56%.

“RNA1{[moe](G)[sp].[moe](G)[sp].[moe](C)[sp].[moe](A)[sp].d(T)[sp].d(A)[sp].d(G)[sp].d(C)[sp].d(A)[sp].d(G)[sp].d(C)[sp].d(A)[sp].d(G)[sp].[moe](G)[sp].[moe](A)[sp].[moe](T)}$$$$V2.0”: under “HepG2, 0.07 µM”, the target mRNA inhibition is 57% and 50%.

With “RNA1{[moe](G)[sp].[cEt](T)[sp].d(G)[sp].d(C)[sp].d(A)[sp].d(G)[sp].d(A)[sp].d(G)[sp].d(G)[sp].d(T)[sp].d(G)[sp].d(A)[sp].[cEt](A)[sp].[moe](G)[sp].[cEt](C)[sp].[moe](G)}$$$$V2.0”, the target mRNA inhibition was 14% (HepG2, 0.0092593 µM); 33% (HepG2, 0.0277778 µM); 74% and 83% (HepG2, 0.07 µM); 70% (HepG2, 0.0833333 µM); 77% (HepG2, 0.25 µM).

On to “RNA1{[moe](G)[sp].[moe](T)[sp].[moe](G)[sp].[moe](A)[sp].d(A)[sp].d(G)[sp].d(C)[sp].d(G)[sp].d(A)[sp].d(A)[sp].d(G)[sp].d(T)[sp].d(G)[sp].[moe](C)[sp].[moe](A)[sp].[moe](C)[sp].[moe](A)}$$$$V2.0”, for which the target mRNA inhibition (HepG2, 0.07 µM) is 72% and 62%.

As for “RNA1{[moe](G)[sp].[cEt](A)[sp].[cEt](G)[sp].d(G)[sp].d(T)[sp].d(G)[sp].d(A)[sp].d(A)[sp].d(G)[sp].d(C)[sp].d(G)[sp].d(A)[sp].d(A)[sp].[cEt](G)[sp].[cEt](T)[sp].[moe](G)}$$$$V2.0”, the target mRNA inhibition (HepG2, 0.07 µM) was found to be 71%.

As to “RNA1{[moe](G)[sp].[moe](A)[sp].d(G)[sp].d(G)[sp].d(T)[sp].d(G)[sp].d(A)[sp].d(A)[sp].d(G)[sp].d(C)[sp].d(G)[sp].[moe](A)[sp].[moe](A)[sp].[moe](G)[sp].[moe](T)[sp].[moe](G)[sp].[moe](C)}$$$$V2.0”, the target mRNA inhibition (HepG2, 0.07 µM) was 67% and 63%.
